In patent US8569493B2 (Santen Pharmaceutical Co., Ltd., priority 2007, dated 2013) one finds inhibition data, which are given here for 40 compounds.

The target of this test is T1, Recombinant human GR (Homo sapiens, UniProt P04150).
T1 construct: purchased Invitrogen P2816
T1 sequence (P04150 1-777): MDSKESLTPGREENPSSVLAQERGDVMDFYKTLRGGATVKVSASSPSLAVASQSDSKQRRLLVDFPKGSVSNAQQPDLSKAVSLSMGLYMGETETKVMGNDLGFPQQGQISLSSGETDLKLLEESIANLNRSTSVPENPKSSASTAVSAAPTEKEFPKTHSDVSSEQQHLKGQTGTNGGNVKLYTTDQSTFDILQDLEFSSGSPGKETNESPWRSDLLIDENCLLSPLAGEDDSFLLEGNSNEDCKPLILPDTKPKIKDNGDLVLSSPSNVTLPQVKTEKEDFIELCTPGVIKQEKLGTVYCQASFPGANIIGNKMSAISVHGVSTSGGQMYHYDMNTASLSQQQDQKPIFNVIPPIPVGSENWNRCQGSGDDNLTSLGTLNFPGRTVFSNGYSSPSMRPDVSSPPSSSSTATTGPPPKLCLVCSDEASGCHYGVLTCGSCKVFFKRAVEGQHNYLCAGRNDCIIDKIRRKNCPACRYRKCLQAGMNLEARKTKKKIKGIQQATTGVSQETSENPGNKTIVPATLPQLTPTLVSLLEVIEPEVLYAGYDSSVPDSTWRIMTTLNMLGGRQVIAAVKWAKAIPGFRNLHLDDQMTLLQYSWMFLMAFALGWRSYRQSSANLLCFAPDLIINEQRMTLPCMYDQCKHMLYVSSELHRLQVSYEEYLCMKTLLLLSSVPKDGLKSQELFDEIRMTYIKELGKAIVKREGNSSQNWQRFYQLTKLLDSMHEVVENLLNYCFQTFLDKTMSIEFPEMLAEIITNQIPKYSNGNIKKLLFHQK
As to the kind of experiment: GR competitor assay by fluorescence polarization (binding activity to glucocorticoid receptor). As to conditions: 20 μM test compound solution, 10 μL per well plus 5 μL 4×GS1 and 5 μL 4×GR; 2 to 4 hours at room temperature; ratio of 100% or more is indicated by 100%. The protocol:
1. Evaluation Test for Binding Activity to Glucocorticoid Receptor (hereinafter referred to as “GR”)
In order to evaluate a binding activity to GR, a receptor competitor assay was carried out by a fluorescence polarization method. In the assay, a GR competitor assay kit (manufactured by Invitrogen, cat No. P2816) was used, and a procedure was carried out according to the protocol attached to the kit. Hereinafter, the specific method will be described.
(Preparation of Reagents)
GR screening buffer: A buffer containing 10 mM potassium phosphate (pH 7.4), 20 mM sodium molybdate (Na2MoO4), 0.1 mM ethylene diamine tetraacetic acid (EDTA), 5 mM dithiothreitol (DTT), 0.1 mM stabilizing peptide and 2% dimethylsulfoxide was prepared.
4×GS1 solution: Fluormone™ GS1, which is a fluorescent glucocorticoid ligand, was diluted with GR screening buffer, whereby a 4 nM solution was prepared.
4×GR solution: Recombinant human GR was diluted with GR screening buffer, whereby a 16 nM solution was prepared.
(Preparation of Test Compound Solution)
After a test compound was dissolved in dimethylsulfoxide, it was diluted with GR screening buffer, whereby a 20 μM test compound solution was prepared.
(Test Method and Measurement Method)
1) The test compound solution was added in an amount of 10 μL into each well of a 384-well plate, and then, 4×GS1 solution and 4×GR solution were added in an amount of 5 μL into each well, respectively.
2) The plate was incubated in a dark place at room temperature for 2 to 4 hours.
3) By using a multimode plate reader, Analyst™ HT (manufactured by LJL Biosystems), fluorescence polarization of each well was measured. As the blank, a well containing GR screening buffer in place of the test compound and 4×GS1 solution was used.
4) The same procedure as that in the above 1) to 3) was carried out except that GR screening buffer was used in place of the test compound solution, and the obtained result was taken as the negative control.
5) The same procedure as that in the above 1) to 3) was carried out except that 2 mM dexamethasone was used in place of the test compound solution, and the obtained result was taken as the positive control.
(Calculation Equation of GR Binding Ratio)
A GR binding ratio (%) was calculated from the following equation. GR binding ratio(%)=100×[1−(fluorescence polarization of test compound solution−fluorescence polarization of positive control solution)/(fluorescence polarization of negative control solution−fluorescence polarization of positive control solution)] (Test Results and Discussion)
For orientation: Polarisation of emitted light reports the rotation of a fluorescent probe.
`COc1cc(OS(C)(=O)=O)ccc1-c1ccc2c(c1COc1cc(F)ccc1C)N(C)C(=O)C(C)(C)N2` [Compound 1-1, 8-(5-Fluoro-2-methylphenoxymethyl)-7-(2-methoxy-4-methylsulfonyloxyphenyl)-1,3,3-trimethyl-3,4-dihydro-1H-quinoxalin-2-one]: the inhibition at 10 µM came to 91%. Regarding `COc1cc(OS(=O)(=O)c2ccccc2)ccc1-c1ccc2c(c1COc1cc(F)ccc1C)N(C)C(=O)C(C)(C)N2` [Compound 1-2], the inhibition at 10 µM was determined as 85%. In the case of `COc1cc(OS(=O)(=O)C(F)(F)F)ccc1-c1ccc2c(c1COc1cc(F)ccc1C)N(C)C(=O)C(C)(C)N2` [Compound 1-3] it was 99%; in that of `CCCS(=O)(=O)Oc1ccc(-c2ccc3c(c2COc2cc(F)ccc2C)N(C)C(=O)C(C)(C)N3)c(OC)c1` [Compound 1-4], 99%. With `COc1cc(OS(=O)(=O)c2ccco2)ccc1-c1ccc2c(c1COc1cc(F)ccc1C)N(C)C(=O)C(C)(C)N2` [Compound 1-5], the inhibition at 10 µM was 95%. The result for `COc1cc(OS(C)(=O)=O)ccc1-c1ccc2c(c1COC(=O)c1ccc(C)s1)N(C)C(=O)C(C)(C)N2` [Compound 1-6] reads 100%; that for `COc1cc(OS(=O)(=O)c2ccccc2)ccc1-c1ccc2c(c1COC(=O)c1ccc(C)s1)N(C)C(=O)C(C)(C)N2` [Compound 1-7], 86%; that for `COc1cc(OS(=O)(=O)c2ccccc2Cl)ccc1-c1ccc2c(c1COc1cc(F)ccc1C)N(C)C(=O)C(C)(C)N2` [Compound 1-8], 85%. With `COc1cc(OS(=O)(=O)Cc2ccccc2)ccc1-c1ccc2c(c1COc1cc(F)ccc1C)N(C)C(=O)C(C)(C)N2` [Compound 1-9], the inhibition at 10 µM turned out to be 100%. For the compound `COC(=O)CCS(=O)(=O)Oc1ccc(-c2ccc3c(c2COc2cc(F)ccc2C)N(C)C(=O)C(C)(C)N3)c(OC)c1` [Compound 1-10], the inhibition at 10 µM was found to be 100%. In the case of `COc1cc(OS(=O)(=O)c2ccccc2C)ccc1-c1ccc2c(c1COc1cc(F)ccc1C)N(C)C(=O)C(C)(C)N2` [Compound 1-11] it was 83%; in that of `CCCCS(=O)(=O)Oc1ccc(-c2ccc3c(c2COc2cc(F)ccc2C)N(C)C(=O)C(C)(C)N3)c(OC)c1` [Compound 1-12], 100%; in that of `CCS(=O)(=O)Oc1ccc(-c2ccc3c(c2COc2cc(F)ccc2C)N(C)C(=O)C(C)(C)N3)c(OC)c1` [Compound 1-13], 100%. In the case of `COc1cc(OS(=O)(=O)C(C)C)ccc1-c1ccc2c(c1COc1cc(F)ccc1C)N(C)C(=O)C(C)(C)N2` [Compound 1-14], the inhibition at 10 µM was found to be 100%. In the case of `COc1cccc(S(=O)(=O)Oc2ccc(-c3ccc4c(c3COc3cc(F)ccc3C)N(C)C(=O)C(C)(C)N4)c(OC)c2)c1` [Compound 1-15] it was 82%; in that of `COc1cc(OS(=O)(=O)c2cccc(Cl)c2)ccc1-c1ccc2c(c1COc1cc(F)ccc1C)N(C)C(=O)C(C)(C)N2` [Compound 1-16], 68%. In the case of `COc1cc(OS(=O)(=O)c2ccc(Cl)cc2)ccc1-c1ccc2c(c1COc1cc(F)ccc1C)N(C)C(=O)C(C)(C)N2` [Compound 1-17] it was 65%; in that of `COc1cc(OS(=O)(=O)Cc2cccc(Cl)c2)ccc1-c1ccc2c(c1COc1cc(F)ccc1C)N(C)C(=O)C(C)(C)N2` [Compound 1-18], 88%; in that of `COc1cc(OS(=O)(=O)Cc2ccc(C)cc2)ccc1-c1ccc2c(c1COc1cc(F)ccc1C)N(C)C(=O)C(C)(C)N2` [Compound 1-19], 91%.

On to `COc1cc(OS(=O)(=O)Cc2ccc(Cl)cc2)ccc1-c1ccc2c(c1COc1cc(F)ccc1C)N(C)C(=O)C(C)(C)N2` [Compound 1-20], for which the inhibition at 10 µM worked out at 87%.

Regarding `COc1cc(OS(=O)(=O)CC(C)C)ccc1-c1ccc2c(c1COc1cc(F)ccc1C)N(C)C(=O)C(C)(C)N2` [Compound 1-21], the inhibition at 10 µM was 92%.

In the case of `COc1cc(OS(=O)(=O)CCC(F)(F)F)ccc1-c1ccc2c(c1COc1cc(F)ccc1C)N(C)C(=O)C(C)(C)N2` [Compound 1-22], the inhibition at 10 µM stood at 91%. Regarding `COc1cc(OS(=O)(=O)C2CC2)ccc1-c1ccc2c(c1COc1cc(F)ccc1C)N(C)C(=O)C(C)(C)N2` [Compound 1-23], the inhibition at 10 µM turned out to be 94%. In the case of `COc1cc(NS(C)(=O)=O)ccc1-c1ccc2c(c1COc1cc(F)ccc1C)N(C)C(=O)C(C)(C)N2` [Compound 1-25], the inhibition at 10 µM was determined as 92%. For `COc1cc(OS(=O)(=O)c2ccccc2F)ccc1-c1ccc2c(c1COc1cc(F)ccc1C)N(C)C(=O)C(C)(C)N2` [Compound 1-26], the inhibition at 10 µM came to 95%. The result for `COc1cc(OS(=O)(=O)Cc2ccccc2Cl)ccc1-c1ccc2c(c1COc1cc(F)ccc1C)N(C)C(=O)C(C)(C)N2` [Compound 1-27] reads 99%. In the case of `COc1cc(OS(=O)(=O)Cc2ccccc2C)ccc1-c1ccc2c(c1COc1cc(F)ccc1C)N(C)C(=O)C(C)(C)N2` [Compound 1-28] it was 91%; in that of `COc1cc(OS(=O)(=O)C2CCCC2)ccc1-c1ccc2c(c1COc1cc(F)ccc1C)N(C)C(=O)C(C)(C)N2` [Compound 1-29], 95%. In the case of `COc1cc(OS(=O)(=O)C2CCCCC2)ccc1-c1ccc2c(c1COc1cc(F)ccc1C)N(C)C(=O)C(C)(C)N2` [Compound 1-30] it was 92%; in that of `COc1cc(OS(=O)(=O)Cc2cccc(C)c2)ccc1-c1ccc2c(c1COc1cc(F)ccc1C)N(C)C(=O)C(C)(C)N2` [Compound 1-31], 90%. Take `COc1cc(OS(=O)(=O)C2CC2)ccc1-c1ccc2c(c1COC(=O)c1ccc(C)s1)N(C)C(=O)C(C)(C)N2` [Compound 1-32]: the inhibition at 10 µM came out at 96%. In the case of `COc1cc(OS(=O)(=O)CCC(F)(F)F)ccc1-c1ccc2c(c1COC(=O)c1ccc(C)s1)N(C)C(=O)C(C)(C)N2` [Compound 1-33] it was 95%. In the case of `COc1cc(OS(=O)(=O)CC(C)C)ccc1-c1ccc2c(c1COC(=O)c1ccc(C)s1)N(C)C(=O)C(C)(C)N2` [Compound 1-34] it was 100%; in that of `CCCS(=O)(=O)Oc1ccc(-c2ccc3c(c2COC(=O)c2ccc(C)s2)N(C)C(=O)C(C)(C)N3)c(OC)c1` [Compound 1-35], 95%. In the case of `COc1cc(OS(=O)(=O)C(C)C)ccc1-c1ccc2c(c1COC(=O)c1ccc(C)s1)N(C)C(=O)C(C)(C)N2` [Compound 1-36] it was 99%; in that of `COc1cc(OS(=O)(=O)C2CCCC2)ccc1-c1ccc2c(c1COC(=O)c1ccc(C)s1)N(C)C(=O)C(C)(C)N2` [Compound 1-37], 94%. For `COc1ccc([N+](=O)[O-])cc1OCc1c(-c2ccc(OS(C)(=O)=O)cc2OC)ccc2c1N(C)C(=O)C(C)(C)N2` [Compound 1-38], the inhibition at 10 µM was 100%. In the case of `COc1ccc([N+](=O)[O-])cc1OCc1c(-c2ccc(OS(=O)(=O)CCC(F)(F)F)cc2OC)ccc2c1N(C)C(=O)C(C)(C)N2` [Compound 1-39] it was 100%; in that of `COc1ccc([N+](=O)[O-])cc1OCc1c(-c2ccc(OS(=O)(=O)CC(C)C)cc2OC)ccc2c1N(C)C(=O)C(C)(C)N2` [Compound 1-40], 100%; in that of `COc1ccc([N+](=O)[O-])cc1OCc1c(-c2ccc(OS(=O)(=O)C3CCCC3)cc2OC)ccc2c1N(C)C(=O)C(C)(C)N2` [Compound 1-41], 100%.

What is called inhibition is how much of the control response was suppressed.
